Key:
Test in all cases: relative viability (nuclei count vs DMSO), 5 days (fraction); higher = more cells survive
Obatoclax + Crizotinib = compound: COC1=CC(c2cc3ccccc3[nH]2)=N/C1=C\c1[nH]c(C)cc1C [Obatoclax] + C[C@@H](Oc1cc(-c2cnn(C3CCNCC3)c2)cnc1N)c1c(Cl)ccc(F)c1Cl [Crizotinib] (partner 1 µM)
Procedure, shortened: (§1)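 The day after seeding in 1536-well plates, lung cancer cell lines were treated by pin tool with a single drug, or with a fixed anchor-drug dose together with five library-drug doses (not always all listed) in √10 steps. After 5 days, a combined fix-and-stain solution (final 0.05% Triton X-100, 1% formaldehyde, 1 ug/ml Hoechst) was added. Nuclei counted on 4× images gave relative viability as treated counts over vehicle counts, reported as the median of duplicate plates.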

[1] = compound: CC1=CC(=NN1)NC2=CC(=NC(=N2)/C=C/C3=CC=CC=C3)N4CCN(CC4)C + Cc1cc(Nc2cc(N3CCN(C)CC3)nc(Sc3ccc(NC(=O)C4CC4)cc3)n2)n[nH]1 [Tozasertib] (partner 0.1 µM)
Procedure, shortened: as §1

[2] = compound: CC1=CC(=NN1)NC2=CC(=NC(=N2)/C=C/C3=CC=CC=C3)N4CCN(CC4)C + COc1cccc2cc(-c3nc([C@H]4CC[C@H](C(=O)O)CC4)n4ncnc(N)c34)[nH]c12 [OSI-027] (partner 0.5 µM)
Procedure, shortened: as §1

Bortezomib + Pemetrexed = compound: CC(C)C[C@H](NC(=O)[C@H](Cc1ccccc1)NC(=O)c1cnccn1)B(O)O [Bortezomib] + Nc1nc2[nH]cc(CCc3ccc(C(=O)N[C@@H](CCC(=O)O)C(=O)O)cc3)c2c(=O)[nH]1 [Pemetrexed] (partner 0.2 µM)
Procedure, shortened: as §1

Cell Line	relative viability (Obatoclax + Crizotinib; first compound 0.01 µM)	relative viability (Obatoclax + Crizotinib; first compound 0.03162 µM)	relative viability (Obatoclax + Crizotinib; first compound 0.1 µM)	relative viability (Obatoclax + Crizotinib; first compound 0.3162 µM)	relative viability (Obatoclax + Crizotinib; first compound 1 µM)	relative viability ([1]; first compound 0.08 µM)	relative viability ([1]; first compound 0.253 µM)	relative viability ([1]; first compound 0.8 µM)	relative viability ([1]; first compound 2.53 µM)	relative viability ([1]; first compound 8 µM)	relative viability ([2]; first compound 0.08 µM)	relative viability ([2]; first compound 0.253 µM)	relative viability ([2]; first compound 0.8 µM)	relative viability ([2]; first compound 2.53 µM)	relative viability ([2]; first compound 8 µM)	relative viability (Bortezomib + Pemetrexed; first compound 0.0002 µM)	relative viability (Bortezomib + Pemetrexed; first compound 0.000632 µM)	relative viability (Bortezomib + Pemetrexed; first compound 0.002 µM)	relative viability (Bortezomib + Pemetrexed; first compound 0.006325 µM)	relative viability (Bortezomib + Pemetrexed; first compound 0.02 µM)
NCI-H1651	0.906	0.831	0.863	0.89	0.891	0.678	0.658	0.661	0.296	0.177	0.613	0.749	0.63	0.293	0.133	0.603	0.618	0.565	0.594	0.362
NCI-H1666	1.08	1.04	0.867	0.284	0.265	0.559	0.549	0.554	0.336	0.298	0.822	0.921	0.86	0.79	0.432	0.816	0.872	0.858	0.579	0.443
NCI-H1734	0.665	0.701	–	0.625	0.447	0.256	0.238	0.239	0.227	0.157	0.637	0.527	0.475	0.234	0.139	0.419	0.407	0.451	0.178	0.114
NCI-H1755	0.846	0.833	0.813	0.925	0.867	0.539	0.563	0.524	0.333	0.211	0.724	0.715	0.648	0.363	0.209	0.404	0.495	0.472	0.286	0.239
NCI-H1915	0.898	0.835	0.864	0.877	0.901	0.462	0.34	0.334	0.16	0.135	0.635	0.496	0.557	0.371	0.271	0.496	0.475	0.494	0.396	0.0489
NCI-H1944	0.975	1.05	1.05	1.06	1.02	0.266	0.284	0.223	0.184	0.136	0.437	0.4	0.394	0.272	0.145	0.564	0.546	0.636	0.47	0.151
NCI-H1975	0.969	0.897	0.962	0.79	0.518	0.62	0.729	0.416	0.127	0.0865	0.676	0.746	0.629	0.15	0.0749	0.274	0.253	0.158	0.136	0.122
NCI-H1993	0.922	0.916	1.02	0.932	0.986	0.553	0.524	0.577	0.485	0.52	0.514	0.484	0.478	0.457	0.414	0.701	0.585	0.627	0.395	0.391
NCI-H2009	1.07	0.905	0.952	0.355	0.257	0.656	0.73	0.663	0.368	0.217	0.615	0.672	0.638	0.227	0.111	1.05	1.05	1.02	0.553	0.0697
NCI-H2023	0.764	0.638	0.6	0.601	0.568	0.266	0.305	0.235	0.0983	0.0659	0.374	0.45	0.341	0.0653	0.041	0.25	0.247	0.246	0.0916	0.0786
NCI-H2085	0.961	0.865	0.791	0.798	0.334	0.823	0.749	0.629	0.424	0.433	0.728	0.755	0.758	0.334	0.193	0.827	0.873	0.991	0.403	0.206
NCI-H2087	0.818	0.864	0.83	0.768	0.294	0.229	0.238	0.195	0.162	0.11	0.622	0.295	0.537	0.196	0.109	0.626	0.761	0.63	0.0855	0.0402
NCI-H2126	1.06	0.987	0.952	1.02	0.965	0.844	0.907	0.837	0.501	0.236	0.74	0.747	0.675	0.596	0.37	0.648	0.695	0.707	0.61	0.536
NCI-H2170	1.13	1.13	1.11	1.2	1.09	0.72	0.656	0.699	0.38	0.164	0.759	0.728	0.683	0.377	0.189	0.271	0.256	0.286	0.263	0.136
NCI-H2228	0.404	0.488	0.464	0.299	0.233	0.193	0.214	0.158	0.086	0.0648	0.566	0.595	0.557	0.0751	0.0577	0.369	0.356	0.275	0.112	0.0808
NCI-H2347	0.738	0.671	0.556	0.742	0.382	0.501	0.565	0.518	0.461	0.257	0.37	0.431	0.465	0.347	0.197	0.418	0.43	0.413	0.417	0.357
